According to patent US20240158446A1, “CYCLIC COMPOUND HAVING SELECTIVE INHIBITORY ACTION ON KRAS OVER HRAS AND NRAS” (CHUGAI SEIYAKU KABUSHIKI KAISHA, priority 2021, published 2024):
Like-named read-outs stand apart in the source and are kept apart here. Where a SMILES comes first, the peptide text is derived from it. Bridges are numbered along the chain shown (N, C = ends). [ ]: non-standard residue; d: D form. The star is where a group is joined. hPhe(3-Cl-4-CF3) = N[C@@H](CCc1ccc(C(F)(F)F)c(Cl)c1)C(=O)O; NPrPhe(4-CF3) = CCCN[C@@H](Cc1ccc(C(F)(F)F)cc1)C(=O)O; NMeGly(cPent) = CN[C@H](C(=O)O)C1CCCC1; NMeD = CN[C@@H](CC(=O)O)C(=O)O; NMeL = CN[C@@H](CC(C)C)C(=O)O; Morpholide = C1CN(*)CCO1; Ac5c = NC1(C(=O)O)CCCC1; Abu = CC[C@H](N)C(=O)O; NEtG = CCNCC(=O)O; Sar = CNCC(=O)O

What was measured:
[1] = target: GDP-bound KRAS wild-type protein (Homo sapiens, UniProt P01116); test: Binding to KRAS by surface plasmon resonance (SPR), Single Cycle Kinetics
[2] = target: GDP-bound NRAS wild-type protein (Homo sapiens, UniProt P01111); test: Binding to NRAS by surface plasmon resonance (SPR), Single Cycle Kinetics; details: for NRAS/KRAS (ratio of KD value for NRAS to KD value for KRAS): GDP-bound NRAS wild-type protein vs GDP-bound KRAS wild-type protein; for NRAS/KRAS (ratio of KD value with respect to GDP-bound NRAS wild-type protein to KD value with respect to KRAS): SPR KD ratio NRAS/KRAS, class symbols
[3] = target: GDP-bound HRAS wild-type protein (Homo sapiens, UniProt P01112); test: Binding to HRAS by surface plasmon resonance (SPR), Single Cycle Kinetics; details: for HRAS/KRAS (ratio of KD value for HRAS to KD value for KRAS): GDP-bound HRAS wild-type protein vs GDP-bound KRAS wild-type protein; for HRAS/KRAS (ratio of KD value with respect to GDP-bound HRAS wild-type protein to KD value with respect to KRAS): SPR KD ratio HRAS/KRAS, class symbols
[4] = test system: human lung cancer strain NCI-H441;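 further: cell proliferation inhibition after four days measured by CellTiter-Glo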
[5] = SPR, Single Cycle Kinetics, GDP-bound KRAS wild-type protein, read-out: KRAS KD
[6] = SPR Single Cycle Kinetics, GDP-bound KRAS wild-type protein, 1:1 binding model, read-out: KRAS KD
[7] = SPR, Single Cycle Kinetics, 1:1 binding model, GDP-bound KRAS wild-type protein, read-out: KRAS KD

GDP-bound NRAS wild-type protein, sequence (P01111 whole entry): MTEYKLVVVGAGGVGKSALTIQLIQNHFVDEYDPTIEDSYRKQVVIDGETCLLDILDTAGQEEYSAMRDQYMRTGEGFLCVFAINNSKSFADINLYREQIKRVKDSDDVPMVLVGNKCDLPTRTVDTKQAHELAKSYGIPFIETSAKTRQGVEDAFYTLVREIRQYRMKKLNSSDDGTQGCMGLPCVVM
GDP-bound KRAS wild-type protein, sequence (P01116 whole entry): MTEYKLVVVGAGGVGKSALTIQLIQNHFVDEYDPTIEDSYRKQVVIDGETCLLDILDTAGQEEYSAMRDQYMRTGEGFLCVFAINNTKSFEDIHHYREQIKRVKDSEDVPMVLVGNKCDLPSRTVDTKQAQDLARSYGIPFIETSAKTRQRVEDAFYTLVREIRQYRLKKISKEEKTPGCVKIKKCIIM
GDP-bound HRAS wild-type protein, sequence (P01112 whole entry): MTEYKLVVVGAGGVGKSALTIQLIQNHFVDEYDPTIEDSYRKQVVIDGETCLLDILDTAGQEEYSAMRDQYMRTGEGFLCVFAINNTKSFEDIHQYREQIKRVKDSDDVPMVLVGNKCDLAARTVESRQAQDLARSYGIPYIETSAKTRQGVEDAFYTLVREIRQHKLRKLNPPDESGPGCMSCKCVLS

SMILES | Kd [1, 5] | IC50 [4] | Kd [1, 6] | Kd [1, 7] | NRAS/KRAS (ratio of KD value for NRAS to KD value for KRAS) ([2]; SPR) | HRAS/KRAS (ratio of KD value for HRAS to KD value for KRAS) ([3]; SPR) | NRAS/KRAS (ratio of KD value for NRAS to KD value for KRAS) ([2]; SPR, KD ratio class) | HRAS/KRAS (ratio of KD value for HRAS to KD value for KRAS) ([3]; SPR, KD ratio class) | also measured
CCC[C@H]1C(=O)N[C@@H]([C@@H](C)CC)C(=O)N(C2CC2)CC(=O)N(C)[C@H]2C/C=C\CCN(C2=O)[C@@H](CC2CCCCC2)C(=O)N(C)CC(=O)N[C@@H](CCc2ccc(C(F)(F)F)c(OC)c2)C(=O)N2C[C@H](OCC)C[C@H]2C(=O)N(C)C2(CCC2)C(=O)N(C)[C@@H](C(CC)CC)C(=O)N(C)[C@H](C(=O)N(C)C)CC(=O)N1C [PP2337] | 3.2 nM | 33.9 nM |  |  | A (a compound having 10 or more and less than 20 is denoted as A) | A (a compound having 10 or more and less than 20 is denoted as A) |  |  | 
CCO[C@@H]1C[C@H]2C(=O)NC3(CCC3)C(=O)N(C)[C@@H](C(CC)CC)C(=O)N(C)[C@H](C(=O)N(C)C)CC(=O)N(C)[C@@H](CC3CC3)C(=O)N[C@@H]([C@@H](C)CC)C(=O)N(C)CC(=O)N(C)[C@H]3C/C=C\CCN(C3=O)[C@@H](CC3CCC(F)(F)CC3)C(=O)N(C)CC(=O)N[C@@H](CCc3cc(F)c(C(F)(F)F)c(F)c3)C(=O)N2C1 [PP1429] |  | 38.7 nM |  | 0.52 nM |  |  | AA (a compound having 20 or more is denoted as AA) | A (a compound having 10 or more and less than 20 is denoted as A) | 
CCCN1C(=O)CN(C)C(=O)CN(CC)C(=O)[C@H](CC)NC(=O)[C@H](CC(C)C)N(C)C(=O)C[C@@H](C(=O)N2CCOCC2)N(C)C(=O)[C@H](C2CCCC2)N(C)C(=O)C2(CCCC2)NC(=O)[C@@H]2CCCN2C(=O)[C@H](CCc2ccc(C(F)(F)F)c(Cl)c2)NC(=O)CN(C)C(=O)[C@@H]1Cc1ccc(C(F)(F)F)cc1 [PP0290] ([NMeL][Abu][NEtG][Sar][NPrPhe(4-CF3)][Sar][hPhe(3-Cl-4-CF3)]P[Ac5c][NMeGly(cPent)][NMeD]-Morpholide; lactam N-11) |  | 149 nM | 4.8 nM |  | B (a compound having 3 or more and less than 10 is denoted as B) | C (A compound having a KD ratio of 0.1 or more and less than 3 is denoted as C) |  |  | 
CCO[C@@H]1C[C@H]2C(=O)NC3(CC(C)(C)C3)C(=O)N(C)[C@@H](C3CCCC3)C(=O)N(C)[C@H](C(=O)N3CCCCC3)CC(=O)N(C)[C@H]3CCCCc4ccc(cc4)C[C@@H](C(=O)N(C)CC(=O)N[C@@H](CCc4ccc(C(F)(F)F)c(OC)c4)C(=O)N2C1)N1CC/C=C\C[C@@H](C1=O)N(C)C(=O)CN(C)C(=O)[C@H]([C@@H](C)CC)NC3=O [PP3093, (1S,7S,11R,13S,19S,22S,26S,29S,35S,37Z)-19-cyclopentyl-11-ethoxy-7-[2-[3-methoxy-4-(trifluoromethyl)phenyl]ethyl]-3,3′,3′,18,21,25,31,34-octamethyl-29-[(1S)-1-methylpropyl]-22-(piperidine-1-carbonyl)spiro[3,6,9,15,18,21,25,28,31,34,41-undecazapentacyclo[24.15.9.2^43,46.1^35,41.0^9,13]tripentaconta-37,43(52),44,46(51)-tetraene-16,1′-cyclobutane]-2,5,8,14,17,20,24,27,30,33,53-undecone] | 0.097 nM |  |  |  | A (a compound having 10 or more and less than 20 is denoted as A) | A (a compound having 10 or more and less than 20 is denoted as A) |  |  | Kd ([1]; SPR, Single Cycle Kinetics, 1:1 binding model, read-out: KD value with respect to GDP-bound KRAS wild-type protein): 0.097 nM; ratio of the KD value with respect to GDP-bound NRAS wild-type protein to the KD value with respect to KRAS ([2]; SPR, KD(NRAS)/KD(KRAS)): A (a compound having 10 or more and less than 20 is denoted as A); ratio of the KD value with respect to GDP-bound HRAS wild-type protein to the KD value with respect to KRAS ([3]; SPR, KD(HRAS)/KD(KRAS)): A (a compound having 10 or more and less than 20 is denoted as A); IC50 ([4]; read-out: NCI-H441 cell proliferation inhibitory activity, 50% proliferation inhibitory concentration (IC50 value), NCI-H441, four days, CellTiter-Glo): 3.2 nM
CCO[C@@H]1C[C@H]2C(=O)NC3(CCC3)C(=O)N(C)[C@@H](C3CCCC3)C(=O)N(C)[C@H](C)CC(=O)N(C)[C@@H](CC3CC3)C(=O)N[C@@H]([C@@H](C)CC)C(=O)N(C)CC(=O)N(C)[C@H]3C/C=C\CCN(C3=O)[C@@H](Cc3ccc(C)cc3)C(=O)N(C)CC(=O)N[C@@H](CCc3cc(F)c(C(F)(F)F)c(F)c3)C(=O)N2C1 [PP1410] |  | 51 nM |  | 0.32 nM |  |  | B (a compound having 3 or more and less than 10 is denoted as B) | B (a compound having 3 or more and less than 10 is denoted as B) | 
CCC[C@H]1C(=O)N[C@@H]([C@@H](C)CC)C(=O)N(C2CC2)CC(=O)N(C)[C@H]2C/C=C\CCN(C2=O)[C@@H](Cc2ccc(C)cc2)C(=O)N(C)CC(=O)N[C@@H](CCc2cc(F)c(C(F)(F)F)c(F)c2)C(=O)N2C[C@H](OC3CCC3)C[C@H]2C(=O)NC2(CC(C)(C)C2)C(=O)N(C)[C@@H](C2CCCC2)C(=O)N(C)[C@H](C(=O)N(C)C)CC(=O)N1C [PP2614] |  | 12.1 nM | 0.27 nM |  |  |  |  |  | NRAS/KRAS (ratio of KD value with respect to GDP-bound NRAS wild-type protein to KD value with respect to KRAS) [2]: A (a compound having 10 or more and less than 20 is denoted as A); HRAS/KRAS (ratio of KD value with respect to GDP-bound HRAS wild-type protein to KD value with respect to KRAS) [3]: A (a compound having 10 or more and less than 20 is denoted as A)
CC[C@H](C)[C@@H]1NC(=O)[C@H](COC)N(C)C(=O)C[C@@H](C(=O)N(C)C)N(C)C(=O)[C@H](C2CCCC2)N(C)C(=O)C2(CC(C)(C)C2)NC(=O)[C@@H]2C[C@H](C)CN2C(=O)[C@H](CCc2ccc(C(F)(F)F)c(Cl)c2)NC(=O)CN(C)C(=O)[C@H](Cc2ccc(C)cc2)N2CC/C=C\C[C@@H](C2=O)N(C)C(=O)CN(C)C1=O [PP2502] | 0.065 nM | 7.9 nM |  |  | A (a compound having 10 or more and less than 20 is denoted as A) | A (a compound having 10 or more and less than 20 is denoted as A) |  |  | 

More lines, in order of falling IC50 [4], values ahead:

Kd [1, 5] | IC50 [4] | Kd [1, 6] | Kd [1, 7] | SMILES | NRAS/KRAS (ratio of KD value for NRAS to KD value for KRAS) ([2]; SPR) | HRAS/KRAS (ratio of KD value for HRAS to KD value for KRAS) ([3]; SPR) | NRAS/KRAS (ratio of KD value for NRAS to KD value for KRAS) ([2]; SPR, KD ratio class) | HRAS/KRAS (ratio of KD value for HRAS to KD value for KRAS) ([3]; SPR, KD ratio class) | also measured
 | 98.6 nM | 2 nM |  | CCC[C@H]1C(=O)N[C@@H]([C@@H](C)CC)C(=O)N2CCC[C@H]2C(=O)N(C)[C@H]2C/C=C\CCN(C2=O)[C@@H](Cc2ccc(C)cc2)C(=O)N(C)CC(=O)N[C@@H](CCc2ccc(Cl)c(Cl)c2)C(=O)N2C[C@H](OC(C)C)C[C@H]2C(=O)NC2(CC(C)(C)C2)C(=O)N(C)[C@@H](C(CC)CC)C(=O)N(C)[C@H](C(=O)N(C)C)CC(=O)N1C [PP2641] |  |  |  |  | NRAS/KRAS (ratio of KD value with respect to GDP-bound NRAS wild-type protein to KD value with respect to KRAS) [2]: AA (a compound having 20 or more is denoted as AA); HRAS/KRAS (ratio of KD value with respect to GDP-bound HRAS wild-type protein to KD value with respect to KRAS) [3]: A (a compound having 10 or more and less than 20 is denoted as A)
 | 32.7 nM | 0.49 nM |  | CCC[C@H]1C(=O)N[C@@H]([C@@H](C)CC)C(=O)N(C)CC(=O)N(C)[C@H]2C/C=C\CCN(C2=O)[C@@H](Cc2ccc(C(F)F)cc2)C(=O)N(C)CC(=O)N[C@@H](CCc2ccc(Cl)c(Cl)c2)C(=O)N2C[C@H](OC3CCC3)C[C@H]2C(=O)NC2(CC(C)(C)C2)C(=O)N(C)[C@@H](C(CC)CC)C(=O)N(C)[C@H](C(=O)N(C)C)CC(=O)N1C [PP2643] |  |  |  |  | NRAS/KRAS (ratio of KD value with respect to GDP-bound NRAS wild-type protein to KD value with respect to KRAS) [2]: AA (a compound having 20 or more is denoted as AA); HRAS/KRAS (ratio of KD value with respect to GDP-bound HRAS wild-type protein to KD value with respect to KRAS) [3]: A (a compound having 10 or more and less than 20 is denoted as A)
 | 32.3 nM |  | 0.15 nM | CCC[C@H]1C(=O)N[C@@H]([C@@H](C)CC)C(=O)N(C)CC(=O)N(C)[C@H]2C/C=C\CCN(C2=O)[C@@H](CC2CCCCC2)C(=O)N(C)CC(=O)N[C@@H](CCc2cc(F)c(C(F)(F)F)c(F)c2)C(=O)N2C[C@H](OCC)C[C@H]2C(=O)NC2(CCC2)C(=O)N(C)[C@@H](C2CCCC2)C(=O)N(C)[C@H](C(=O)N(C)C)CC(=O)N1C [PP1464] |  |  | A (a compound having 10 or more and less than 20 is denoted as A) | A (a compound having 10 or more and less than 20 is denoted as A) | 
0.12 nM | 8.3 nM |  |  | CCOC[C@H]1C(=O)N[C@@H]([C@@H](C)CC)C(=O)N(C)CC(=O)N(C)[C@H]2C/C=C\CCN(C2=O)[C@@H](Cc2ccc(C)cc2)C(=O)N(C)CC(=O)N[C@@H](CCc2ccc(C(F)(F)F)c(Cl)c2)C(=O)N2C[C@@H](C)C[C@H]2C(=O)NC2(CC(C)(C)C2)C(=O)N(C)[C@@H](C2CCCC2)C(=O)N(C)[C@H](C(=O)N(C)C)CC(=O)N1C [PP2394] | A (a compound having 10 or more and less than 20 is denoted as A) | B (a compound having 3 or more and less than 10 is denoted as B) |  |  | 
 | 1.7 nM |  | 0.046 nM | CCO[C@@H]1C[C@H]2C(=O)NC3(CC(C)(C)C3)C(=O)N(C)[C@@H](C3CCCC3)C(=O)N(C)[C@H](C(=O)N(C)C)CC(=O)N(C)[C@@H](CC(C)C)C(=O)N[C@@H]([C@@H](C)CC)C(=O)N(C)CC(=O)N(C)[C@H]3C/C=C\CCN(C3=O)[C@@H](Cc3ccc(C(F)(F)F)cc3)C(=O)N(C)CC(=O)N[C@@H](CCc3ccc(C(F)(F)F)c(OC)c3)C(=O)N2C1 [PP1562] |  |  | A (a compound having 10 or more and less than 20 is denoted as A) | A (a compound having 10 or more and less than 20 is denoted as A) | 
